The values that follow are results of earlier work, collected in patent US12253532B2, “Mass spectrometric quantitation assay for metabolites of leflunomide” (Quest Diagnostics Investments LLC, priority 2010, dated 2025).

Read-outs that look alike come from different tables or passages of the source.

For `CC(O)=C(C#N)C(=O)Nc1ccc(C(F)(F)F)cc1` [teriflunomide, 2-cyano-3-hydroxy-N-(4-trifluoromethylphenyl)-2-butenamide], the “Mean steady state plasma concentration of teriflunomide” value runs as follows: (patients on daily dosage of 5 mg leflunomide) “about 8800 ng/mL”; (patients on daily dosage of 10 mg leflunomide) ~18,000 ng/mL; (patients on daily dosage of 25 mg leflunomide) ~63,000 ng/mL.
